Here are results for three molecules from patent US20240269197A1, “INSULIN-SENSITIZING AGENT AND BUTYRATE-PRODUCING BACTERIUM” (priority 2021, published 2024).

Where a name gives a salt, the structure may show the parent alone.

This experiment relates to subjects aged 18-65 years with a HOMA(-IR) score between 2.5 and 3.5 (insulin resistance). The experiment in a line: Reduction in HOMA-IR after 28 days of (non-)butyrate-producing bacteria with or without (non-)insulin-sensitizing agents (Experimental Example 1). The format is in vivo, human. Also on record: key: Non-measurable: the first rank describes the lowest effect; Very low: very low; Low: low; Low/medium: low/medium; Medium: medium; High: high; Very high: the last rank describes the highest effect. The settings on record: supplement alone, bacterium placebo. From the text: The term ‘insulin resistance’ is well known by the skilled person. Within this disclosure, the term encompasses all conditions diagnosed as ‘insulin resistance’ by an (authorized) medical practitioner. The term ‘insulin resistance’ as used herein preferably refers to peripheral insulin resistance and/or hepatic insulin resistance. Insulin resistance may be diagnosed, for example, by the gold standard that is the “hyperinsulinemic euglycemic clamp” (DeFronzo R A, Tobin J D, Andres R, Am J Physiol. 1979 September; 237(3): E214-23). This method measures the amount of glucose necessary to compensate for an increased insulin level without causing hypoglycemia. The procedure may take two hours and typically involves the following steps: Through a peripheral vein, insulin is infused at 10-120 mU per m^2 per minute. In order to compensate for the insulin infusion, glucose 20% is infused to maintain blood sugar levels between 5 and 5.5 mmol/L. The rate of glucose infusion is determined by checking the blood sugar levels every five to ten minutes (Muniyappa R, Lee S, Chen H, Quon M J, January 2008, American Journal of Physiology. Endocrinology and Metabolism. 294 (1): E15-26). […] The homeostatic model assessment for insulin resistance (HOMA or HOMA-IR) is an alternative method used to determine and quantify insulin resistance in a fasting steady-state condition, and correlates reasonably with the golden standard (See e.g., Matthews D R, Hosker J P, Rudenski A S, Naylor B A, Treacher D F, Turner R C (1985). Diabetologia. 28 (7): 412-9. Doi:10.1007/BF00280883. PMID 3899825; and/or A. S. Rudenski; D. R. Matthews; J. C. Levy; R. C. Turner (1991) Metabolism. 40 (9): 908-917). […] The HOMA(-IR) value can be calculated by the following equation: […]
Mixed male/female subjects aged 18-65 years with a HOMA(-IR) score between 2.5 and 3.5, thus indicating insulin resistance, are included in the study. The HOMA-IR can be determined as described herein elsewhere. The HOMA(-IR) is measured at baseline and after 28 days. […]
In the case of chromium(III) picolinate, the “reduction in HOMA-IR value” is given as “Very low”.

Take `OC[C@@H](O)[C@@H](O)[C@H](O)[C@@H](O)CO` [Sorbitol, D-glucitol]: the “reduction in HOMA-IR value” is on record as “Low/medium”.

As to `CN(C)C(=N)NC(=N)N` [Metformin, 1,1-dimethylbiguanide hydrochloride, reference compound], the “reduction in HOMA-IR value” is on record as “Low/medium”.
